This is an account of results in ChEMBL document CHEMBL2073845, “Structure, function, and regional distribution of the organic cation transporter OCT3 in the kidney” (Am J Physiol Renal Physiol, 2000).

Broadly, the Ki is a measure of affinity in units of concentration, obtained from inhibition or displacement. Read a high Ki as a looser hold on the target. A word on the inhibition: it is the relative decrease from the control value, in per cent. In general, Km refers to the substrate concentration at which the rate is half of its maximum.

For data set [1], the target named is T1, Solute carrier family 22 member 3 (Homo sapiens, UniProt O75751).
T1 sequence (O75751 whole entry): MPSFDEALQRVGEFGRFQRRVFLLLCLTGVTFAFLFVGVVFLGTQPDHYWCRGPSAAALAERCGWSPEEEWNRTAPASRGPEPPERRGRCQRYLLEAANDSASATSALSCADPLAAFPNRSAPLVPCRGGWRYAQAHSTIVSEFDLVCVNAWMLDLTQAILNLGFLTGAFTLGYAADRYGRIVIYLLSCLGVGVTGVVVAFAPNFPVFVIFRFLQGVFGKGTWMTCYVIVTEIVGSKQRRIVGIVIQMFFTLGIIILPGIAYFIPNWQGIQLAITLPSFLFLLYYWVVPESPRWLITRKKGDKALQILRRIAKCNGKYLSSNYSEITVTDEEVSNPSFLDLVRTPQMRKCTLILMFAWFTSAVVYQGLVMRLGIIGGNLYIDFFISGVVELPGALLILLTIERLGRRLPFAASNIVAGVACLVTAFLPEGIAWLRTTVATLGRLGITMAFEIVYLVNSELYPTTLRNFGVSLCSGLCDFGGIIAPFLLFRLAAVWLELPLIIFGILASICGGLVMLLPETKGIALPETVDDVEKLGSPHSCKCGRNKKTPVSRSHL
Description: TP_TRANSPORTER: inhibition of MPP+ uptake in OCT3-expressing HRPE cells. Type of data set: functional, cell-based.

The target of data set [2] is T2, Solute carrier family 22 member 3 (Mus musculus, UniProt Q9WTW5).
T2 sequence (Q9WTW5 whole entry): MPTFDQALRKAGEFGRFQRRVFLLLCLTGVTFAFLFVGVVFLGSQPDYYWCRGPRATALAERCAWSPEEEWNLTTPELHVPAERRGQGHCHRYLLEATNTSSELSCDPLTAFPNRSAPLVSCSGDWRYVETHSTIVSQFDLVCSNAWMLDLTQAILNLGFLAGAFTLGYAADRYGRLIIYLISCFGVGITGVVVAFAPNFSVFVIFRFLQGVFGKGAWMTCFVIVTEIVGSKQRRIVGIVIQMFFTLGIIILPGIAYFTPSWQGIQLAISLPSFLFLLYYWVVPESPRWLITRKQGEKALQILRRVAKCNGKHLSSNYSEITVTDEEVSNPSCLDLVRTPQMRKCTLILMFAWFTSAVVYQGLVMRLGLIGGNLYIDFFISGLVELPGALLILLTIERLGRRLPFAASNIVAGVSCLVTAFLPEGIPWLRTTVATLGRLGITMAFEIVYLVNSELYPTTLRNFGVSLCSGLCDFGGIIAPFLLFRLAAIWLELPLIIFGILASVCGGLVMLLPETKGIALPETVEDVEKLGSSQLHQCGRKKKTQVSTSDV
Description: TP_TRANSPORTER: inhibition of TEA uptake (TEA: 20 uM, Guanidine: 5000 uM) in OCT3-expressing HRPE cells. The following applies: human. Format: functional, cell-based.

Data set [3] addresses T2, Solute carrier family 22 member 3. As to the kind of experiment: TP_TRANSPORTER: uptake in Xenopus laevis oocytes. Format: functional, cell-based. The following applies: oocyte.
The target of data set [4] is T3, OCT3 (SLC22A3) (Mus musculus, UniProt Q9WTW5).
T3 sequence (Q9WTW5 whole entry): T2 sequence (Q9WTW5 whole entry)
As to the kind of experiment: in vitro. The following applies: human, HRPE cells that express OCT3, probe TEA.

Data set [5] deals with T3, OCT3 (SLC22A3). As to the kind of experiment: TP_TRANSPORTER: inhibition of TEA uptake (TEA: 20 uM, MPTP: 5000 uM) in OCT3-expressing HRPE cells. Type of data set: functional, cell-based. The conditions noted are these: human, HRPE cells that express OCT3, probe TEA.
The target of data set [6] is T3, OCT3 (SLC22A3). As to the kind of experiment: TP_TRANSPORTER: inhibition of TEA uptake (TEA: 20 uM, MPP+: 5000 uM) in OCT3-expressing HRPE cells. The conditions noted are these: human, HRPE cells that express OCT3, probe TEA. Format: functional, cell-based.
Data set [7] has as its target T3, OCT3 (SLC22A3). As to the kind of experiment: in vitro. The following applies: human, HRPE cells that express OCT3, probe TEA. The source holds these as a separate data set.
Data set [8] addresses T1, Solute carrier family 22 member 3. Description: TP_TRANSPORTER: uptake in OCT3-expressing HRPE cells. Type of data set: functional, cell-based.
The target in data set [9] is T2, Solute carrier family 22 member 3. Description: TP_TRANSPORTER: inhibition of TEA uptake (TEA: 20 uM, NMN: 5000 uM) in OCT3-expressing HRPE cells. Type of data set: functional, cell-based. The conditions noted are these: human.
Substrate in data set [10]: CC[N+](CC)(CC)CC
Description: cells, lysate or membranes named.

Molecule `CNCCCN1c2ccccc2CCc2ccccc21` [DESIPRAMINE] had a Ki in data set [1] of 14 µM. This lies in the double-digit micromolar range.
`N=C(N)N` [GUANIDINE] had a Ki in data set [1] of 6200 µM. In addition, the Inhibition result in data set [2] was “inhibitor [60-70 % inhibition]”. Moreover, the Activity result in [3] is “substrate [+]”.
`CN(C)CCCN1c2ccccc2CCc2ccccc21` [IMIPRAMINE] yielded an inhibition constant Ki in data set [1] of 42 µM.
Take `CN/C(=N/CCSCc1nc[nH]c1C)NC#N` [CIMETIDINE]: the inhibition at 5000 µM at OCT3 (SLC22A3) [4] is more than 90%.
In turn, `CN1CC=C(c2ccccc2)CC1` displayed an inhibition at 5000 µM on OCT3 (SLC22A3) [5] of more than 90%.
In turn, `C[n+]1ccc(-c2ccccc2)cc1` came in with a Ki in data set [1] of 54 µM. Further, the Activity result in data set [3] is “substrate [+]”. The molecule also returned an inhibition at 5000 µM against OCT3 (SLC22A3) [6] of more than 90%.
Take `Clc1cccc(Cl)c1N=C1NCCN1` [CLONIDINE]: in data set [1], the Ki worked out at 373 µM. For the same molecule, on OCT3 (SLC22A3) [7], the inhibition at 5000 µM is more than 90%.
With `CC[N+](CC)(CC)CC` [TETRYLAMMONIUM], in [1], the inhibitory constant (Ki) was determined as 1370 µM. Besides, the Activity entry in [8] and in [3] was “substrate [+]” throughout.
For `CCN(CC)CCNC(=O)c1ccc(N)cc1` [PROCAINAMIDE], the Ki in data set [1] came to 738 µM.
Regarding `CNC(=O)c1cccnc1` [NICOTINYL METHYLAMIDE], in data set [9], the Inhibition entry was “inhibitor [60-70 % inhibition]”.

B1: Solute carrier family 22 member 3 (Mus musculus) (protein)
chain: T2 sequence (Q9WTW5 whole entry)
Take B1: the Michaelis constant (Km) in data set [10] is 1900 µM.
